Entries after “also recorded” stand apart in the source; their conditions may differ.
How the values were obtained:
[1] = Preliminary in vivo study: serum LM 13765 by HPTLC after oral LM 13765; design: species or system rabbits (New Zealander strain); conditions: rabbits, oral 100 mg/kg, samples 0.5-12 h
Protocol: Drug/metabolite-free plasma or plasma spiked with fixed aliquots of LM 13765 or rabbit serum sample (0.2 ml) was taken in a glass centrifuge tube (15 ml capacity). Sufficient amount of acetonitrile was added to make the volume to 1.6 ml and vortexed at high speed for 1 min. The mixture was centrifuged (2500 rpm, 15 min) and the clear supernatant layer was transferred to another tube and dried over anhydrous sodium sulphate (0.25 g). Adequate volumes of the dried acetonitrile layer were spotted onto the TLC plate. Chromatographic estimations were performed using precoated silica gel 60 F254 TLC plates (prewashed with methanol and dried in air) under following conditions; A mobile phase, benzene:methanol (8:2 v/v); chamber saturation time, 60 min; temperature, 25±2°; development of plates, ascending mode; migration distance, 50 mm; slit dimension, 3×0.3 mm; wavelength of detection, 314 nm; band width, 4 mm; space between two bands, 4 mm; spraying rate, 10 μl/s.
Suitable volumes of standard solution of LM 13765 in acetonitrile or extracts of drug/metabolite-free plasma or rabbit serum samples, were applied on TLC plate under nitrogen stream using semiautomatic spotter. The plate was dried in air and developed at constant temperature (25±2°) using a mixture of benzene:methanol (8:2 v/v) as the mobile phase. […] Peak area values were used for quantitative determination. […]

[2] = Stability in plasma under storage conditions; format: in vitro ADME, rabbit; conditions: -20°, one day (24 h)
Protocol: The method was validated in terms of linearity, limit of quantitation, limit of detection, precision, accuracy and specificity. The linear response for LM 13765 spiked in plasma, was determined by analyzing corresponding samples five times for each concentration in the range of 12.5 to 100 ng/spot. The lowest concentration of the calibration range is taken as the limit of quantitation for LM 13765 while the limit of detection was determined by spotting concentrations of LM 13765 lower than the limit of quantitation. […] The recovery of LM 13765 from plasma (extraction efficiency) was determined by comparing peak areas obtained from plasma spiked with LM 13765 at concentration levels of 12.5, 25, 50, 75 and 100 ng/spot with the corresponding standards of LM 13765. Accuracy of the proposed method was determined by standard addition method at three different concentrations of LM 13765 in the range of 12.5 to 100 ng/spot. Specificity of the proposed method was assessed in terms of purity of chromatographic peak corresponding to LM 13765 by correlating the spectra scanned at peak start, peak apex and peak end positions of the spot corresponding to LM 13765. […] The sample was analyzed, on the same day as well as after 24 h storage, for the amounts of LM 13765. […]

[3] = system: serum cholesterol, triglycerides and HDL levels; design: method as in PMID 9037441; conditions: cited from earlier work
[4] = system: mice; conditions: up to the dose of 4.5 g/kg, earlier study reported in the introduction; cited from earlier work
[5] = system: hyperlipidemic rats; assay: Biological screening for antihyperlipidemic activity on hyperlipidemic rats; format: in vivo

SMILES | Parent LM 13765 in serum after oral administration (HPTLC spot Rf 0.21) [1] | Stability in plasma under storage conditions [2] | potency versus standard drug gemfibrozil in lowering serum cholesterol and triglycerides and elevating serum HDL [3] | mortality or behavioral changes after oral administration [4] | antihyperlipidemic activity relative to parent compound LM 13765 [5]
CCOC(=O)C(C#N)=C(NC=N)Nc1ccc(Cl)cc1 [LM 13765, N-[2-carbethoxy-2-cyano-1-(p-chloroanilino)vinyl]formamidine] | no spot corresponding to LM 13765 | undergoes significant degradation in one day | more potent than the standard drug gemfibrozil | no mortality or behavioral changes | –
CCOC(=O)C(C#N)=C(N)Nc1ccc(Cl)cc1 [LM 13765-C, ethyl 3-amino-2-cyano-3-(p-chloroanilino)acrylate] | – | stable | – | – | less potent than the parent compound; also recorded: very good antihyperlipidemic activity but is less potent than the parent compound

— publication PMC2846469, “Pharmacokinetic Study of a Novel Antihyperlipidemic Agent LM-13765- A Prodrug” (Indian Journal of Pharmaceutical Sciences, 2009)
